Results on one molecule are retold here after patent publication US11707474B2, “Methods for treating acute myeloid leukemia and related conditions” (GlycoMimetics, Inc., priority 2018, dated 2023).

Experiment [1] concerns KG1. In words: Flow cytometry, binding of E-selectin-PE conjugate to KG1 cells. In kind it is cell-based, human. Conditions: 100 nM. The source says:
(§1) These findings indicate that hypomethylating agents, including 5-azacytidine, may increase the adhesion of leukemic blasts in the bone marrow and therefore hinder the intended anti-leukemic effect. This could explain a source of chemoresistance, and potential for relapse, in patients treated with hypomethylating agents.
For orientation: A flow cytometer gives signals particle by particle.

In experiment [2] the test system is KG1 cells. In words: Static adhesion of KG1 cells to E-selectin coated plates. In kind it is cell-based, human. Conditions: compared to control treated KG1 cells.
From the text: as §1

In experiment [3] the test system is KG1 cells. In words: Systemic KG1 AML model survival. Conditions: 5 mg/kg IP days 7, 10, 13, 16, 19 alone. In kind it is in vivo, NSG female mice. Here is the method:
The potential relevance of these in vitro observations was assessed in NSG female mice with pre-existing disseminated KG1 cells and treated with a compound of Formula (I) (40 mg/kg, IP, QD for 14 days), 5-azacytidine (5 mg/kg, IP, administered on days 7, 10, 13, 16, and 19 (5 doses total)), or the combination of both compounds. Under the conditions of the assay, the median survival time of mice treated with saline alone or a compound of Formula (I) was 69.5 and 69 days, respectively (FIG. 9). Administration of a compound of Formula (I) with 5-azacytidine increased median survival time beyond that obtained with 5-azacytidine treatment alone (>104 days versus 88 days; P=0.014, FIG. 9).

For the molecule `Nc1ncn([C@@H]2O[C@H](CO)[C@@H](O)[C@H]2O)c(=O)n1` [5-azacytidine, reference compound], in experiment [1], the “increase in cell binding of E-selectin-PE conjugate” value is 38%. In addition, the “increase in static adhesion to E-selectin coated plates” value in experiment [2] is recorded as 57%. Moreover, in experiment [3], the median survival time came out at 88 days.
